Data taken from patent US20250025454A1 (priority 2021, published 2025).
Values joined by “and” are separate entries in the source; they are usually repeats but may differ in a detail not shown here. Equal entries are not always repeated. “Also recorded” adds a separate entry of the source. Where two headings read alike, the source gives them in different places.

Experiments:
[1] = system: SARS-CoV-2; conditions: Scripps ReFrame database; cited from earlier work
[2] = cited from earlier work
[3] = system: SARS-CoV-2; conditions: 35 compounds tested
[4] = male, Sprague-Dawley, rat, in vivo
[5] = female, 129S1, mouse, in vivo, po
[6] = in vivo; conditions: female, 129S1, mouse; for Tmax: range
[7] = in vivo; cited from earlier work
[8] = Pharmacokinetics (plasma, lung at 24 h) after single oral dosing in male Sprague-Dawley rats; conditions: for AUC∞ / t1/2 / Cmax / AUC(0-t) / AUC(0-inf) / Tmax: male SD rat plasma; for AUC(0-t): AUClast
[9] = single oral 250 mg/kg (Group 1), individual rats 450, 451, 452, listed as MDL-001, 250 mg/kg
[10] = male, Sprague-Dawley, rat, in vivo, po, 250 mg/kg, single oral 250 mg/kg (Group 1), mean
[11] = male, Sprague-Dawley, rat, in vivo, po, 500 mg/kg, single oral 500 mg/kg (Group 2), individual rats 453, 454, 455
[12] = male, Sprague-Dawley, rat, in vivo, po, 500 mg/kg, single oral 500 mg/kg (Group 2), mean
[13] = male, Sprague-Dawley, rat, in vivo, po, 750 mg/kg, single oral 750 mg/kg (Group 3), individual rats 456, 457, 458
[14] = male, Sprague-Dawley, rat, in vivo, po, 750 mg/kg, single oral 750 mg/kg (Group 3), mean
[15] = male, Sprague-Dawley, rat, in vivo, po, 1000 mg/kg, single oral 1000 mg/kg (Group 4), one outlier excluded, mean

## Cc1c(-c2ccc(O)cc2)n(Cc2ccc(OCCN3CCCCC3)cc2)c2ccc(O)cc12 [Pipendoxifene, 2-(4-hydroxyphenyl)-3-methyl-1-[[4-(2-piperidin-1-ylethoxy)phenyl]methyl]indol-5-ol]
[1]
  activity in HTS: INACTIVE
[2]; 150 mg dose
  mean t1/2: 15.8 h
[2]; 200 mg dose
  mean t1/2: 26 h
[2]; in vivo
  Clearance: 4 to 10.5 h⁻¹ kg⁻¹
  time to steady-state plasma levels: 4 to 5 days
[3]
  activity in the HeLa-ACE2 cell-based SARS-CoV-2 assay: demonstrated activity
[4]
  increase of plasma AUClast: about 2 fold
[4]; po, 250 mg/kg
  AUClast: 3515 ng·h/mL
  Tmax: 5.33 h
[4]; po, 500 mg/kg
  Tmax: 6.67 h
[4]; po, 750 mg/kg
  Tmax: 6.67 h
[5]
  lung concentrations achieved: greater than 30 ug/g
[5]; 250 mg/kg, 24 h
  Plasma concentration: 34 ng/mL
[6]
  Kp: ~50
[6]; 250 mg/kg, Mean Tmax (plasma)
  Tmax: 2 to 6 h
[6]; 250 mg/kg, Tmax (lung)
  Tmax: 4 to 8 h
[6]; po, 50 mg/kg
  Cmax at 5 day: 178 ± 8 ng/mL
  MRT last: 6.79 h
  MRT last at 5 day: 7.35 h
  Tmax at 5 day: 5 h
[6]; po, 250 mg/kg
  Cmax at 5 day: 1050 ± 230 ng/mL
  MRT last: 8.27 h
  Tmax at 5 day: 6 h
[7]
  primary metabolite: indole glucuronide
[8]; 250 mg/kg
  Lung C24 h over SARS-CoV-2 IC50: 9.7 fold
[8]; 500 mg/kg
  Lung C24 h over SARS-CoV-2 IC50: 13.7 fold
[8]; 1000 mg/kg
  Lung C24 h over SARS-CoV-2 IC50: 40.9 fold
[8]; 6750 mg/kg (so in the source)
  Lung C24 h over SARS-CoV-2 IC50: 13.3 fold
[8]; 'higher dose', sentence in the rat section
  Lung C24 h over SARS-CoV-2 IC50: 5.4 fold
[8]; [9]
  AUC∞: 4132 ng·h/mL and 5119 ng·h/mL and 2549 ng·h/mL
  t1/2: 3.83 h and 8.95 h and 5.42 h
[8]; single oral 250 mg/kg (Group 1), mean, listed as MDL-001, 250 mg/kg
  t1/2: 6.06 h
[8]; single oral 1000 mg/kg (Group 4), one outlier excluded, individual rats 459, 460, 461, listed as MDL-001, 1000 mg/kg
  Cmax: 501 ng/mL
[8]; single oral 1000 mg/kg (Group 4), one outlier excluded, individual rats 459, 460, listed as MDL-001, 1000 mg/kg
  AUC∞: 7888 ng·h/mL
[8]; male SD rat, single PO dose 250-1000 mg/kg, listed as MDL-001
  adverse reactions / tolerability: well tolerated with no adverse clinical signs; also recorded: No adverse reactions were observed
[8]; male, Sprague-Dawley, rat, in vivo, Lung/Plasma C24 h ratios, range, Day 1, across the dose range
  Kp at 24 h: 97 to 122
[8]; male, Sprague-Dawley, rat, in vivo, po, 250 mg/kg, single oral 250 mg/kg (Group 1), individual rats 450, 451, 452
  AUC(0-t): 4040 ng·h/mL
[8]; [10]
  AUC(0-t): 3520 ± 980 ng·h/mL
  AUC(0-inf): 3930 ng·h/mL
  Tmax: 5.33 ± 1.15 h
[8]; male, Sprague-Dawley, rat, in vivo, po, 250 mg/kg, Cmax, single oral 250 mg/kg (Group 1), individual rats 450, 451, 452
  Cmax: 334 ng/mL
[8]; male, Sprague-Dawley, rat, in vivo, po, 250 mg/kg, Cmax, single oral 250 mg/kg (Group 1), mean
  Cmax: 311 ± 42 ng/mL
[8]; male, Sprague-Dawley, rat, in vivo, po, 250 mg/kg, t1/2, male SD rat plasma, single oral 250 mg/kg (Group 1), mean
  half-life: 6.06 ± 2.62 h
[8]; [11]
  AUC(0-t): 5730 ng·h/mL
  AUC(0-inf): 6410 ng·h/mL
  Tmax: 8 h
[8]; [12]
  AUC(0-inf): 5850 ng·h/mL
  Tmax: 6.67 ± 1.15 h
[8]; male, Sprague-Dawley, rat, in vivo, po, 500 mg/kg, t1/2, male SD rat plasma, single oral 500 mg/kg (Group 2), individual rats 453, 454, 455
  half-life: 6.08 h
[8]; male, Sprague-Dawley, rat, in vivo, po, 500 mg/kg, t1/2, male SD rat plasma, single oral 500 mg/kg (Group 2), mean
  half-life: 5.2 ± 1.34 h
[8]; [13]
  AUC(0-t): 7530 ng·h/mL
  AUC(0-inf): 7920 ng·h/mL
  Tmax: 8 h
[8]; [14]
  AUC(0-inf): 5520 ng·h/mL
  Tmax: 6.67 ± 1.15 h
[8]; male, Sprague-Dawley, rat, in vivo, po, 750 mg/kg, Cmax, single oral 750 mg/kg (Group 3), mean
  Cmax: 415 ± 72 ng/mL
[8]; male, Sprague-Dawley, rat, in vivo, po, 750 mg/kg, t1/2, male SD rat plasma, single oral 750 mg/kg (Group 3), individual rats 456, 457, 458
  half-life: 4.77 h
[8]; male, Sprague-Dawley, rat, in vivo, po, 1000 mg/kg
  concentration at 24 h: 13400 ng/g
[8]; male, Sprague-Dawley, rat, in vivo, po, 1000 mg/kg, single oral 1000 mg/kg (Group 4), all data included, mean
  AUC(0-t): 6760 ± 930 ng·h/mL
[8]; male, Sprague-Dawley, rat, in vivo, po, 1000 mg/kg, single oral 1000 mg/kg (Group 4), one outlier excluded, individual rats 459, 460, 461
  AUC(0-t): 3980 ng·h/mL
[8]; [15]
  AUC(0-t): 5710 ± 1730 ng·h/mL
  AUC(0-inf): 6880 ng·h/mL
[8]; male, Sprague-Dawley, rat, in vivo, po, 1000 mg/kg, t1/2, male SD rat plasma, single oral 1000 mg/kg (Group 4), all data included, individual rats 459, 460, 461
  half-life: 4.3 h
[8]; male, Sprague-Dawley, rat, in vivo, po, 1000 mg/kg, t1/2, male SD rat plasma, single oral 1000 mg/kg (Group 4), all data included, mean
  half-life: 4.88 ± 0.5 h
[8]; male, Sprague-Dawley, rat, in vivo, po, 1000 mg/kg, t1/2, male SD rat plasma, single oral 1000 mg/kg (Group 4), one outlier excluded, individual rats 459, 460
  half-life: 4.3 h
[8]; male, Sprague-Dawley, rat, in vivo, po, 1000 mg/kg, t1/2, male SD rat plasma, single oral 1000 mg/kg (Group 4), one outlier excluded, mean
  half-life: 4.73 h
[8]; male, Sprague-Dawley, rat, in vivo, po, plasma t1/2, range, 250-1000 mg/kg single oral dose
  half-life: 4.71 to 6.06 h
[8]; male, Sprague-Dawley, rat, plasma, po, 500 mg/kg, Plasma concentration, male SD rat, single oral 500 mg/kg (Group 2), 2 hr, individual rats 453, 454, 455
  concentration at 2 h: 136 ng/mL
